In patent US9586925B2 (priority 2013, dated 2017):
Like-named read-outs stand apart in the source and are kept apart here.

What was measured:
[1] = target: Human recombinant acetylcholinesterase (Homo sapiens (Human), UniProt P22303); test: biochemical
[2] = target: human recombinant butyrylcholinesterase (Homo sapiens (Human), UniProt P06276); test: biochemical; type: biochemical
Male Wistar rats = type: in vivo; settings: rat

Chain of Human recombinant acetylcholinesterase (P22303 32-614 limits assumed): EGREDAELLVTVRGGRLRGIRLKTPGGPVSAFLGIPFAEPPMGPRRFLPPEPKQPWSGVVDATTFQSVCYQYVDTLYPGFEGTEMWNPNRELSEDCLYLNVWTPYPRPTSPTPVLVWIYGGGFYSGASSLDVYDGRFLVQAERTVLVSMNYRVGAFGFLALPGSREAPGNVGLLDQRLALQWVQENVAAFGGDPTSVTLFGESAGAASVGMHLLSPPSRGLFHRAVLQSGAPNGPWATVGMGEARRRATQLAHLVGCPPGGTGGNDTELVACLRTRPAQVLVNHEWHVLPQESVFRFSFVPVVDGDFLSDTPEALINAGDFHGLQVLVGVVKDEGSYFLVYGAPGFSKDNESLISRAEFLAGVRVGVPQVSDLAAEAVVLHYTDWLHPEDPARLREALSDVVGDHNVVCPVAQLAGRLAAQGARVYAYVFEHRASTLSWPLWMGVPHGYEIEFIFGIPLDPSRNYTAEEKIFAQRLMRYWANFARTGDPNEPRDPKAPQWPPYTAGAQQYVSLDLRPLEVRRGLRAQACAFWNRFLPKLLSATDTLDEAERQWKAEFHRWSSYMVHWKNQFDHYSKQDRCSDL
Chain of human recombinant butyrylcholinesterase (P06276 29-602 limits assumed): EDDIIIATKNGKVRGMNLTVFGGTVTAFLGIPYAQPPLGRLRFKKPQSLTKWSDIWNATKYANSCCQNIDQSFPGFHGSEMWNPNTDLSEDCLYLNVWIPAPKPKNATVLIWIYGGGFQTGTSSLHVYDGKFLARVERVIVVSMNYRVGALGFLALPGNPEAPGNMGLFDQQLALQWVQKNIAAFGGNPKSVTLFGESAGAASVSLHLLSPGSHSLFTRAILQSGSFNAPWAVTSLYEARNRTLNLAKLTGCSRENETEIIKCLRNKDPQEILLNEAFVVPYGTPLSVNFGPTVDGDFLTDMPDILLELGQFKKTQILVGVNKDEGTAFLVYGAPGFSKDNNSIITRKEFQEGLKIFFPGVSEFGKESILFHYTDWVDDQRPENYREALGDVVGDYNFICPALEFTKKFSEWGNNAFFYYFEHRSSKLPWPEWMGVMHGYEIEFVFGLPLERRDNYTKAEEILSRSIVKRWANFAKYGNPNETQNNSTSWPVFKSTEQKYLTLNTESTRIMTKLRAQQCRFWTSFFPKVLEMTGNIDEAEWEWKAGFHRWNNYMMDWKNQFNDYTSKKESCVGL

Compound | IC50 [1] | BCHE inhibitory potential in comparison to the current drugs (galantamine, rivastigmine, donepezil) [2] | IC50 [2] | Reverse (%) (percentage antagonism of scopolamine-induced latency deficit) (Male Wistar rats; in vivo) | other results
CCN(C)C(=O)Oc1cc(C(C)N(C)C)c2c(c1)oc(=O)c1ccccc12 (racemic) [FAR-01-1CA, (±)-1-(1-(dimethylamino)ethyl)-6-oxo-6H-benzo[c]chromen-3-yl ethyl(methyl)carbamate] | > 40 µM | at least comparable and/or better inhibitory potential | 8.5 µM |  | selectivity BCHE versus ACHE [2]: possess selectivity to inhibit the BCHE
COc1cc2c(cc1OC)C(=O)C(CC1CCN(Cc3ccccc3)CC1)C2 (stereo not shown) [Donepezil, reference compound] |  |  |  | 52% | 
CCN(C)C(=O)Oc1cccc([C@H](C)N(C)C)c1 [Rivastigmine, reference compound] |  |  |  | 85% | 
COc1cc(C(C)N(C)C)c2c(c1)oc(=O)c1ccccc12 (racemic) [FAR-01-1, (±)-1-(1-(dimethylamino)ethyl)-3-methoxy-6H-benzo[c]chromen-6-one] |  |  | 24.7 µM |  | 
CC(c1cc(O)c2c(c1)oc(=O)c1ccccc12)N(C)C (racemic) [FAR-01-2OH, (±)-3-(1-(dimethylamino)ethyl)-1-hydroxy-6H-benzo[c]chromen-6-one] | 18.9 µM | at least comparable and/or better inhibitory potential | 4.2 µM | 49% | 
CCN(C)C(=O)Oc1cc(C(C)N(C)C)cc2oc(=O)c3ccccc3c12 (racemic) [FAR-01-2CA, (±)-3-(1-(dimethylamino)ethyl)-6-oxo-6H-benzo[c]chromen-1-yl ethyl(methyl)carbamate] |  | at least comparable and/or better inhibitory potential | 12.7 µM |  | Reverse (%) (percentage antagonism of scopolamine-induced latency deficit) (Male Wistar rats; compound 1 mg/kg oral, scopolamine 1 mg/kg i.p., latency measured for 5 minutes): 53%
CC(c1ccc2c(c1)oc(=O)c1ccccc12)N(C)C (racemic) [FAR-02-2RS, (±)-3-(1-(dimethylamino)ethyl)-6H-benzo[c]chromen-6-one] | 10.9 µM |  | 17.9 µM | 70% | 
C[C@@H](c1ccc2c(c1)oc(=O)c1ccccc12)N(C)C [FAR-02-2S, (S)-3-(1-(dimethylamino)ethyl)-6H-benzo[c]chromen-6-one] |  |  |  | 71% | IC50 ([1]; read-out: ACHE Inhibitory Activity IC50): 7.9 µM; IC50 ([2]; read-out: BCHE Inhibitory Activity IC50): 16.2 µM
CC(c1cc(O)cc2oc(=O)c3ccccc3c12)N(C)C (racemic) [FAR-01-1OH, (±)-1-(1-(dimethylamino)ethyl)-3-hydroxy-6H-benzo[c]chromen-6-one] | 33.1 µM |  | > 40 µM |  | 
COc1cc(C(C)N(C)C)cc2oc(=O)c3ccccc3c12 (racemic) [FAR-01-2, (±)-3-(1-(dimethylamino)ethyl)-1-methoxy-6H-benzo[c]chromen-6-one] | 2.8 µM |  | 21.1 µM | 71% | 
